From article PMC6407917, “Identification of GSK3186899/DDD853651 as a Preclinical Development Candidate for the Treatment of Visceral Leishmaniasis” (Journal of Medicinal Chemistry, 2018)

Experiments:
Assay in all cases: biochemical
Parameters in all cases: species or system HEK293/K-562/placenta mixed human extract; Kinobeads chemoproteomic competition binding, quantified by TMT LC-MS/MS, dose response up to 20 uM
[1] = molecular target: DYRK2 (Homo sapiens, UniProt Q92630)
[2] = molecular target: ROCK2 (Homo sapiens, UniProt O75116)
[3] = molecular target: ITK (Homo sapiens, UniProt Q08881)
[4] = molecular target: PRKD3 (Homo sapiens, UniProt O94806)
[5] = molecular target: MAP4K4 (Homo sapiens, UniProt O95819)
[6] = molecular target: PKMYT1 (Homo sapiens, UniProt Q99640)
[7] = molecular target: SRC (Homo sapiens, UniProt P12931)
[8] = molecular target: WNK4 (Homo sapiens, UniProt Q96J92)
[9] = molecular target: TEC (Homo sapiens, UniProt P42680)
[10] = molecular target: CAMK2G (Homo sapiens, UniProt Q13555)
[11] = molecular target: PRKAA1 (Homo sapiens, UniProt Q13131)
[12] = molecular target: RPS6KA4 (Homo sapiens, UniProt O75676)
[13] = molecular target: MARK3 (Homo sapiens, UniProt P27448)
[14] = molecular target: MAPKAPK5 (Homo sapiens, UniProt Q8IW41)
[15] = molecular target: NUAK1 (Homo sapiens, UniProt O60285)
[16] = molecular target: BMP2K (Homo sapiens, UniProt Q9NSY1)
[17] = molecular target: RPS6KA2 (Homo sapiens, UniProt Q15349)
[18] = molecular target: DDR2 (Homo sapiens, UniProt Q16832)
[19] = molecular target: ULK3 (Homo sapiens, UniProt Q6PHR2)
[20] = molecular target: TYK2 (Homo sapiens, UniProt P29597)
[21] = molecular target: PLK4 (Homo sapiens, UniProt O00444)

Chain of RPS6KA2 (Q15349 whole entry): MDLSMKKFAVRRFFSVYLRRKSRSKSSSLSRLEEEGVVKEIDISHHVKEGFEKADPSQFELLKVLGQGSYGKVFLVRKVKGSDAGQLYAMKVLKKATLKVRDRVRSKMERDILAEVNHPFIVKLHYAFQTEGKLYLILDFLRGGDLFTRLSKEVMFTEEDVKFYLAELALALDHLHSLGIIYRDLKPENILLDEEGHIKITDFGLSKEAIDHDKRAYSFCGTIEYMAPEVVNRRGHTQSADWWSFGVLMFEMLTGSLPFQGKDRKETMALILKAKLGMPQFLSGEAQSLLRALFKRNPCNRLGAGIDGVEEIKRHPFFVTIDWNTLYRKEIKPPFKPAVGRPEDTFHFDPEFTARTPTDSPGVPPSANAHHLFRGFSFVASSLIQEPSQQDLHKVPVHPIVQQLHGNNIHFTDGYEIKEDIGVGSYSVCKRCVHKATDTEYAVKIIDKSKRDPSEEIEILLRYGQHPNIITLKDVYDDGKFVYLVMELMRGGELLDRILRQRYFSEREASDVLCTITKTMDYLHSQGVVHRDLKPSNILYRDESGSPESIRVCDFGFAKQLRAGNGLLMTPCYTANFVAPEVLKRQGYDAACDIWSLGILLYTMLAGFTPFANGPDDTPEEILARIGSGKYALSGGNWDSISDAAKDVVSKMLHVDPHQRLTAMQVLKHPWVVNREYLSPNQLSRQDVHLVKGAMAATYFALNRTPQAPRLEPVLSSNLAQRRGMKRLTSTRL
Chain of NUAK1 (O60285 whole entry): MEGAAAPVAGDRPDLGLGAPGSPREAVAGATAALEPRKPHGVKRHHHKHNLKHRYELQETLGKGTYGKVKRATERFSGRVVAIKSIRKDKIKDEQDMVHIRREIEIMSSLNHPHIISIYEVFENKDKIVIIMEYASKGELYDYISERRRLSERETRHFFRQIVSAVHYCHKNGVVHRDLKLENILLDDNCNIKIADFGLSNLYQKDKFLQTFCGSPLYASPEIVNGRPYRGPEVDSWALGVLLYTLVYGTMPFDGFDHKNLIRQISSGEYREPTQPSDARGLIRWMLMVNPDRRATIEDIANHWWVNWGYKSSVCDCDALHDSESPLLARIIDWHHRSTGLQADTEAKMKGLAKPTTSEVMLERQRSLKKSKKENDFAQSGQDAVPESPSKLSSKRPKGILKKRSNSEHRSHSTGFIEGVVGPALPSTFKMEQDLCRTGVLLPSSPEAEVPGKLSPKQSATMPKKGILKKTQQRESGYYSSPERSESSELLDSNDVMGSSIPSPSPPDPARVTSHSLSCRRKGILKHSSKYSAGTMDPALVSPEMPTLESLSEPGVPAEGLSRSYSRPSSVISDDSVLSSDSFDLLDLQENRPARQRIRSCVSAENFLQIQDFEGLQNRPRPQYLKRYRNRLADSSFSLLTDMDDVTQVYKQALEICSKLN
Chain of PKMYT1 (Q99640 whole entry): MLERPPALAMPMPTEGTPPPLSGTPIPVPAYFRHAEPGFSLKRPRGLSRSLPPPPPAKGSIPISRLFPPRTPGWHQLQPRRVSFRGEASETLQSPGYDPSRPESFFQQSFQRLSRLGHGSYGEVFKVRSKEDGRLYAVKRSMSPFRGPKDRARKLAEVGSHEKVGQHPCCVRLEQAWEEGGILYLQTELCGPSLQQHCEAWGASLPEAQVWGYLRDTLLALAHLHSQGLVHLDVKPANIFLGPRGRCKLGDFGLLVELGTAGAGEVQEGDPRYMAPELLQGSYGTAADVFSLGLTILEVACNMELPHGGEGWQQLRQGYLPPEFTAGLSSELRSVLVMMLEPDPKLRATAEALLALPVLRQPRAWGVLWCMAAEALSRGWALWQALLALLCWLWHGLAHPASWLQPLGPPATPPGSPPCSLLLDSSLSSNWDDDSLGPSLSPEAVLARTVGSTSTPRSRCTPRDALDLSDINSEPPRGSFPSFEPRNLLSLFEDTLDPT
Chain of ROCK2 (O75116 whole entry): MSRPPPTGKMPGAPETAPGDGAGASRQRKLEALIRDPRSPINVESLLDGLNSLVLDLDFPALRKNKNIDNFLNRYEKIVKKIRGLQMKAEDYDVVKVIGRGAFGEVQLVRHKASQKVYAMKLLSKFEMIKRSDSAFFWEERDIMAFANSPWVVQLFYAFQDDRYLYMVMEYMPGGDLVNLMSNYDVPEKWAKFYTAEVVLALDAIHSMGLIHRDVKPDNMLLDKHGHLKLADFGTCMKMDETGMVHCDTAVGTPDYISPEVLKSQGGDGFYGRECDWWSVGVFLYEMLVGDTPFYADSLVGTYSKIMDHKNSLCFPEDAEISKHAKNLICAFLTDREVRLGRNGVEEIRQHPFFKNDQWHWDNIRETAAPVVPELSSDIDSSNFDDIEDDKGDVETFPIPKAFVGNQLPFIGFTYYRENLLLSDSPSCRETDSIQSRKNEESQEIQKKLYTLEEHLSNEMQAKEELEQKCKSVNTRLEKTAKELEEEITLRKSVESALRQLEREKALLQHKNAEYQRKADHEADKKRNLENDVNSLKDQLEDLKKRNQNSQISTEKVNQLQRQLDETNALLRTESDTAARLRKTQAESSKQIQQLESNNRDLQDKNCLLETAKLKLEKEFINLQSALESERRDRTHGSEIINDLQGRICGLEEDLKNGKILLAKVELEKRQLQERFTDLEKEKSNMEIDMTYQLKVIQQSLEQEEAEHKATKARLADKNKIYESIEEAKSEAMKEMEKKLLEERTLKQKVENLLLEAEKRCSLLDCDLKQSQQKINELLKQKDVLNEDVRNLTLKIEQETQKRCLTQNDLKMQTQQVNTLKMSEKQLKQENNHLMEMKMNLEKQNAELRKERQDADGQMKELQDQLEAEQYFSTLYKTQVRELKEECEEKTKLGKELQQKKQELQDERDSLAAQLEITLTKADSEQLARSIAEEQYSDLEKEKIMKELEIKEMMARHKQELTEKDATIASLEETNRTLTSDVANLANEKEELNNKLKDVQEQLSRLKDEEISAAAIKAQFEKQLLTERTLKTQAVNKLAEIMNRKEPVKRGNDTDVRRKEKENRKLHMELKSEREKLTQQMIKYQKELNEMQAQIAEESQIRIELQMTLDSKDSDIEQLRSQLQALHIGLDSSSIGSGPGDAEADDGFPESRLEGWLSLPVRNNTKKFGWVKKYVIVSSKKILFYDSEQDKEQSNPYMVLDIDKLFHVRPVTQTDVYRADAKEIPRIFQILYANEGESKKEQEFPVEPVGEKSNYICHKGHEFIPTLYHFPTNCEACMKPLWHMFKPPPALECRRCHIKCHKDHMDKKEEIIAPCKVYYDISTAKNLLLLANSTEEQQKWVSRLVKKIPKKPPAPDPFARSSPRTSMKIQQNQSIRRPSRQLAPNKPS
Chain of ITK (Q08881 whole entry): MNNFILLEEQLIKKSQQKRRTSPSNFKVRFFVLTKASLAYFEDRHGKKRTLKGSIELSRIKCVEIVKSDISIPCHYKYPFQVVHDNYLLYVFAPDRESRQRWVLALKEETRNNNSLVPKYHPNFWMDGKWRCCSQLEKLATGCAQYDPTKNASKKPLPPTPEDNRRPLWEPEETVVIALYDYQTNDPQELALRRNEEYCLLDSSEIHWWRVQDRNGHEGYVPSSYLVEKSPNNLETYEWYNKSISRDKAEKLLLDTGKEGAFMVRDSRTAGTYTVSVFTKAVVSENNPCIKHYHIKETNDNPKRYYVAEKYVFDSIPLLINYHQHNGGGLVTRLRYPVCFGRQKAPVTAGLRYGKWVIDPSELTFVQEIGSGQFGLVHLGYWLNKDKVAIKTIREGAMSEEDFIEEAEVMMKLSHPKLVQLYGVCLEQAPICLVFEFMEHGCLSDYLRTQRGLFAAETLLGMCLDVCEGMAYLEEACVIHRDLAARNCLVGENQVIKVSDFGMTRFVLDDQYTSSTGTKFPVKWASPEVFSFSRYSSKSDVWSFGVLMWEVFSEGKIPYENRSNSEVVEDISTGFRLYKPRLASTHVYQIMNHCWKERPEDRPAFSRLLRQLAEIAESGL
Chain of PRKAA1 (Q13131 whole entry): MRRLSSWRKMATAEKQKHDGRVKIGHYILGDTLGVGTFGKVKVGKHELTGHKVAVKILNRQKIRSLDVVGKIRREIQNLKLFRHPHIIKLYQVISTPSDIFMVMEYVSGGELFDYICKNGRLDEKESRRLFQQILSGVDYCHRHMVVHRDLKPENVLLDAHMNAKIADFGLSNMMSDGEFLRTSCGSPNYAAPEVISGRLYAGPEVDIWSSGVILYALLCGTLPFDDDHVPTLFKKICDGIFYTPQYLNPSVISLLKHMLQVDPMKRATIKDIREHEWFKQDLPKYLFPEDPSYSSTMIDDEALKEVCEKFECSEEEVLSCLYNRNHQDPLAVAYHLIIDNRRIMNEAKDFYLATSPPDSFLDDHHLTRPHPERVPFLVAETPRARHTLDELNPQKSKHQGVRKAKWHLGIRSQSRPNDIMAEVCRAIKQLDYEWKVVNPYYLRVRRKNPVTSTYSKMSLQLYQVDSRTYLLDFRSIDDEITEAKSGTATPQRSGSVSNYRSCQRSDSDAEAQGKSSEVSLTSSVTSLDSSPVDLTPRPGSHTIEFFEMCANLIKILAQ
Chain of CAMK2G (Q13555 whole entry): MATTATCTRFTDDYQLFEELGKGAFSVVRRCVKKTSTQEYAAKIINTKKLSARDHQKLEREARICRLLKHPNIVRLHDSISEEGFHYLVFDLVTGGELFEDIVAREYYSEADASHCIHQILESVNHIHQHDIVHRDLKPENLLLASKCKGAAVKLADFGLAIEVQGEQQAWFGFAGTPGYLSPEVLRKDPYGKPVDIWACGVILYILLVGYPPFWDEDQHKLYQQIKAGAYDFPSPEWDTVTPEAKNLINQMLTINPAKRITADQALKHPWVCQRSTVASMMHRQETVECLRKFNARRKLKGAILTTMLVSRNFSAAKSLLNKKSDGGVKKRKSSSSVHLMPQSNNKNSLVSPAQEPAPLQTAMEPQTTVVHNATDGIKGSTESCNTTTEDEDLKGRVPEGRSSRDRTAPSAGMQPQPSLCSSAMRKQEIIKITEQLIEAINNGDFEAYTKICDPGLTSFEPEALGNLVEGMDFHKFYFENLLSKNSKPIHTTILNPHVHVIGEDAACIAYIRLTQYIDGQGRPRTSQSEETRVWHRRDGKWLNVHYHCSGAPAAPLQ

Q: `COc1nc(N[C@H]2CC[C@H](NS(=O)(=O)CC(C)C)CC2)nc2[nH]nc(N3CCOC[C@H]3C)c12` [compound 39, N-(trans-4-((4-Methoxy-3-((R)-3-methylmorpholino)-1H-pyrazolo[3,4-d]pyrimidin-6-yl)amino)cyclohexyl)-2-methylpropane-1-sulfonamide] was tested. Which IC50 [1] did it give?
A: ≥ 20 µM

Q: What about the IC50 [2] of the same compound?
A: ≥ 20 µM

Q: What about the IC50 [3] of the same compound?
A: ≥ 20 µM

Q: And the IC50 [4]?
A: ≥ 20 µM

Q: What about the IC50 [5] of the same compound?
A: ≥ 20 µM

Q: And the IC50 [6]?
A: ≥ 20 µM

Q: And the IC50 [7]?
A: ≥ 20 µM

Q: And the IC50 [8]?
A: ≥ 20 µM

Q: What about the IC50 [9] of the same compound?
A: ≥ 20 µM

Q: And the IC50 [10]?
A: ≥ 20 µM

Q: And the IC50 [11]?
A: ≥ 20 µM

Q: What about the IC50 [12] of the same compound?
A: ≥ 20 µM

Q: And the IC50 [13]?
A: ≥ 20 µM

Q: And the IC50 [14]?
A: 6.2 µM

Q: What about the IC50 [15] of the same compound?
A: ≥ 20 µM

Q: What about the IC50 [16] of the same compound?
A: ≥ 20 µM

Q: What about the IC50 [17] of the same compound?
A: ≥ 20 µM

Q: What about the IC50 [18] of the same compound?
A: ≥ 20 µM

Q: What about the IC50 [19] of the same compound?
A: ≥ 20 µM

Q: What about the IC50 [20] of the same compound?
A: ≥ 20 µM

Q: What about the IC50 [21] of the same compound?
A: ≥ 20 µM
